Data on 18 compounds can be found in patent publication US11034661B2, “Substituted N′-hydroxycarbamimidoyl-1,2,5-oxadiazole compounds as indoleamine 2,3-dioxygenase IDO inhibitors” (Merck Sharp & Dohme Corp., priority 2017, dated 2021).

SMILES strings stand for the structures.

For assay [1], the target named is IDO1 in Hela cells stimulated with IFNγ (Homo sapiens (Human), UniProt P14902). As to the kind of experiment: IDO1 Cellular Assay in Hela Cells Stimulated with IFNγ. Type of assay: cell-based. Particulars: IFNγ 100 ng/mL, about 48 hours, fluorescence readout, read-out: IDO1 HELA Cell Assay, IC50. On the procedure:
IDO1 Cellular Assay in Hela Cells Stimulated with IFNγ
Hela cells were cultured in complete Hela culture medium (90% EMEM, 10% heat-inactivated fetal bovine serum) and expanded to about 1×10^9 cells. The cells were then collected and frozen down at 10×10^6 cells/vial in 1 mL frozen medium (90% complete Hela culture medium, 10% DMSO)
Compounds to be tested were serially diluted in ten 3-fold steps in DMSO starting from 10 mM DMSO stocks in Echo low volume plate(s). Compound dilutions or DMSO alone were then dispensed from the dilution plate(s) into Greiner black 384-well assay plate(s) (catalog #781086, 50 nL/well) using an Echo 550 acoustic liquid handler (Labcyte).
Frozen Hela cells were thawed and transferred into Hela assay medium (99% complete Hela culture medium, 1% Pen/Strep) with 20 mL medium/vial of cells. The cells were spun down at 250 g in a table top centrifuge for 5 min and suspended in same volume of Hela assay medium. The cells were then counted and adjusted to a density of 2×10^5 cells/ml in Hela assay medium. Sterile L-tryptophan were added to the cells with final concentration of 300 uM L-tryptophan. A small aliquot (2 mL/plate) of Hela cells were set aside and were not treated with IFNγ, to serve as the Max-E control. The rest of Hela cells were added with sterile IFNγ (Cat #285-IF, R & D systems) with a final concentration of 100 ng/mL.
Hela cells with and without IFNγ were dispensed to the respective wells of 384-well assay plates containing the compounds. The plates were incubated for about 48 hours at a 37° C., 5% CO2 incubator. Afterwards, 12 μL of 0.5 M methyl isonipecotate in dimethyl sulfoxide were added into each well and the plates were sealed and incubated at 37° C. without CO2 overnight. The plates were centrifuged for 1 min at 200×g. The resulting fluorescence was measured in a Spectramax plate reader (Molecular Devices) with a 400 nm excitation filter and a 510 nm emission filter.
The fluorescence intensity of each well was corrected for the background observed in wells with non-IFNγ-treated cells and was expressed as a fraction of the intensity observed in wells of IFNγ-treated cells and DMSO only. Potencies were calculated by linear least squares fit to the four parameter logistic IC50 equation.

Another assay deals with HIS-tagged IDO1 protein (Homo sapiens (Human), UniProt P14902). As to the kind of experiment: IDO1 Enzyme Assay. Type of assay: biochemical. Particulars: recombinant IDO1 40 nM, tryptophan substrate, fluorescence readout. As for the experimental part:
Biological Assays IDO1 Enzyme Assay
Compounds to be tested were serially diluted in ten 3-fold steps in DMSO starting from 10 mM DMSO stocks. Compound dilutions or DMSO alone were then dispensed from the dilution plate into a Greiner black 384-well assay plate (catalog #781086) using an Echo 555 acoustic liquid handler (Labcyte).
HIS-tagged IDO1 protein was recombinantly expressed in Escherichia coli using ZYP5052 autoinduction media supplemented with 500 μM delta aminolevulinic acid for 48 hours at 16 degrees Celsius. IDO1 protein was purified using Ni^2+-affinity resin and size exclusion chromatography. Purified protein was then diluted in assay buffer (50 mM Tris pH 7.0, 1% glycerol, 20 μM methylene blue, 0.05% Tween-20, 20 mM sodium ascorbate, 100 units/mL catalase to obtain a final IDO1 concentration of 40 nM. IDO1 solution […] or buffer alone […] was dispensed to wells of the assay plate using a BioRAPTR liquid dispenser (Beckman Coulter). Assay plates containing compound and IDO1 enzyme were incubated at room temperature for 30 minutes. Afterwards, 10 μL of 400 μM tryptophan in assay buffer were added to each well of the assay plate using a BioRAPTR liquid dispenser. Plates were incubated at room temperature for 60 minutes and reactions were quenched by addition of 10 μL of 0.5 M methyl isonipecotate in dimethyl sulfoxide. Plates were sealed and incubated at 37 degrees Celsius for 4 hours or 50 degrees Celsius for 2 hours. The plates are allowed to cool and then centrifuged for 1 minute at 1000×g. The resulting fluorescence was measured in an Envision plate reader (Perkin Elmer) with a 400/25 nm excitation filter and an 510/20 nm emission filter.
Potencies were calculated by linear least squares fit to the four parameter logistic IC50 equation.

Chain of IDO1 in Hela cells stimulated with IFNγ (P14902 whole entry): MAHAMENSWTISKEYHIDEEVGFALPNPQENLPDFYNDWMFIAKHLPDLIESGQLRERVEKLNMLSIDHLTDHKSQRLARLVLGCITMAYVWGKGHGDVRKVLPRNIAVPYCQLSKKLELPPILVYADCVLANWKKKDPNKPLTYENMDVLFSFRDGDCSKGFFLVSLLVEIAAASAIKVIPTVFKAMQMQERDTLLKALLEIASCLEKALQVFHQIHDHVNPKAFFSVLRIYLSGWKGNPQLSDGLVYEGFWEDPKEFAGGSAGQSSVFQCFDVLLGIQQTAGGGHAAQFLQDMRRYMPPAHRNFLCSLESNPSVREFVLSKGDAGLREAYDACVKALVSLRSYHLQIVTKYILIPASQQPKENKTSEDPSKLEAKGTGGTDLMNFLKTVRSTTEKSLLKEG
Chain of HIS-tagged IDO1 protein (P14902 whole entry): as above

What is called IC50 is the concentration that gives 50% inhibition. Consider `O=C(CO)N1CC[C@H]1COc1nonc1/C(=N/O)N[C@H]1Cc2ccc(F)cc21` [Example 54, N-[(7S)-4-fluorobicyclo[4.2.0]octa-1,3,5-trien-7-yl]-N′-hydroxy-4-{[(2S)-1-(hydroxyacetyl)azetidin-2-yl]methoxy}-1,2,5-oxadiazole-3-carboximidamide], for which the results for the IC50 (in assay [1]; at HIS-tagged IDO1 protein) were 1340 nM and 1490 nM, respectively.

Regarding `O=C(NCCOc1nonc1/C(=N/O)N[C@H]1Cc2ccc(F)cc21)c1nc[nH]n1` [Example 22, N-{2-[(4-{N-[(7S)-4-fluorobicyclo[4.2.0]octa-1,3,5-trien-7-yl]-N′-hydroxycarbamimidoyl}-1,2,5-oxadiazol-3-yl)oxy]ethyl}-1H-1,2,4-triazole-3-carboxamide], the half-maximal inhibitory concentration (IC50) in assay [1] was found to be 308 nM; at HIS-tagged IDO1 protein it was 264 nM.

In the case of `C[C@@H](CNC(=O)CO)Oc1nonc1/C(=N/O)N[C@H]1Cc2ccc(F)cc21` [Example 46, N-{(2S)-2-[(4-{N-[(7S)-4-fluorobicyclo[4.2.0]octa-1,3,5-trien-7-yl]-N′-hydroxycarbamimidoyl}-1,2,5-oxadiazol-3-yl)oxy]propyl}-2-hydroxyacetamide], the IC50 in assay [1] turned out to be 1640 nM; at HIS-tagged IDO1 protein it was 2450 nM.

`CC(=O)N[C@@H](CO)COc1nonc1/C(=N/O)N[C@H]1Cc2ccc(F)cc21` [Example 52, N-{(2S)-1-[(4-{N-[(7S)-4-fluorobicyclo[4.2.0]octa-1,3,5-trien-7-yl]-N′-hydroxycarbamimidoyl}-1,2,5-oxadiazol-3-yl)oxy]-3-hydroxypropan-2-yl}acetamide]: the IC50 was 1290 nM in assay [1] and 1810 nM on HIS-tagged IDO1 protein.

Regarding `CC(=O)NC[C@H](O)COc1nonc1/C(=N/O)N[C@H]1Cc2ccc(F)cc21` [Example 53, N-{(2S)-3-[(4-{N-[(7S)-4-fluorobicyclo[4.2.0]octa-1,3,5-trien-7-yl]-N′-hydroxycarbamimidoyl}-1,2,5-oxadiazol-3-yl)oxy]-2-hydroxypropyl}acetamide], the concentration for half-maximal inhibition (IC50) in assay [1] amounted to 328 nM; on HIS-tagged IDO1 protein it was 216 nM.

For `O=C(COc1nonc1/C(=N/O)N[C@H]1Cc2ccc(F)cc21)N1CC[C@@H](O)C1` [Example 44, N-[(7S)-4-fluorobicyclo[4.2.0]octa-1,3,5-trien-7-yl]-N′-hydroxy-4-{2-[(3R)-3-hydroxypyrrolidin-1-yl]-2-oxoethoxy}-1,2,5-oxadiazole-3-carboximidamide], the IC50 worked out at 1310 nM in assay [1] and 866 nM at HIS-tagged IDO1 protein.

Consider `CC(C)(O)C(=O)N[C@H]1C[C@@H](Oc2nonc2/C(=N/O)N[C@H]2Cc3ccc(F)cc32)C1` [Example 66, N-((1R,3s)-3-((4-((Z)-N-((S)-4-fluorobicyclo[4.2.0]octa-1(6),2,4-trien-7-yl)-N′-hydroxycarbamimidoyl)-1,2,5-oxadiazol-3-yl)oxy)cyclobutyl)-2-hydroxy-2-methylpropanamide], for which the results for the 50% inhibitory concentration (IC50) (in assay [1]; on HIS-tagged IDO1 protein) were 287 nM and 167 nM, respectively.

`O/N=C(\N[C@H]1Cc2ccc(F)cc21)c1nonc1OCCn1cnnc1` [Example 28, N-[(7S)-4-fluorobicyclo[4.2.0]octa-1,3,5-trien-7-yl]-N′-hydroxy-4-[2-(4H-1,2,4-triazol-4-yl)ethoxy]-1,2,5-oxadiazole-3-carboximidamide]: the figures for the IC50 (in assay [1]; at HIS-tagged IDO1 protein) were 561 nM and 396 nM, respectively.

On to `O=C(NCCOc1nonc1/C(=N/O)N[C@H]1Cc2ccc(F)cc21)[C@@H](O)CO` [Example 26, (2S)-N-{2-[(4-{N-[(7S)-4-fluorobicyclo[4.2.0]octa-1,3,5-trien-7-yl]-N′-hydroxycarbamimidoyl}-1,2,5-oxadiazol-3-yl)oxy]ethyl}-2,3-dihydroxypropanamide], for which the IC50 was 284 nM in assay [1] and 214 nM on HIS-tagged IDO1 protein.

On to `NS(=O)(=O)NCCCOc1nonc1/C(=N/O)N[C@H]1Cc2ccc(F)cc21` [Example 64, (S,Z)-N-(4-fluorobicyclo[4.2.0]octa-1(6),2,4-trien-7-yl)-N′-hydroxy-4-(3-(sulfamoylamino)propoxy)-1,2,5-oxadiazole-3-carboximidamide], for which the IC50 in assay [1] was determined as 66 nM; at HIS-tagged IDO1 protein, 37 nM.

Consider `O=C(CO)N1CC[C@H](Oc2nonc2/C(=N/O)N[C@H]2Cc3ccc(F)cc32)C1` [Example 25, N-[(7S)-4-fluorobicyclo[4.2.0]octa-1,3,5-trien-7-yl]-N′-hydroxy-4-{[(3S)-1-(hydroxyacetyl)pyrrolidin-3-yl]oxy}-1,2,5-oxadiazole-3-carboximidamide], for which the IC50 stood at 2000 nM in assay [1] and 1200 nM on HIS-tagged IDO1 protein.

For the compound `O=C(CO)N1CCC[C@@H]1COc1nonc1/C(=N/O)N[C@H]1Cc2ccc(F)cc21` [Example 58, N-[(7S)-4-fluorobicyclo[4.2.0]octa-1,3,5-trien-7-yl]-N′-hydroxy-4-{[(2R)-1-(hydroxyacetyl)pyrrolidin-2-yl]methoxy}-1,2,5-oxadiazole-3-carboximidamide], the 50% inhibitory concentration (IC50) was 1340 nM in assay [1] and 1490 nM at HIS-tagged IDO1 protein.

For the compound `CC(=O)N[C@H](CO)COc1nonc1/C(=N/O)N[C@H]1Cc2ccc(F)cc21` [Example 51, N-{(2R)-1-[(4-{N-[(7S)-4-fluorobicyclo[4.2.0]octa-1,3,5-trien-7-yl]-N′-hydroxycarbamimidoyl}-1,2,5-oxadiazol-3-yl)oxy]-3-hydroxypropan-2-yl}acetamide], the IC50 in assay [1] turned out to be 1340 nM; at HIS-tagged IDO1 protein, 1070 nM.

As for `O=C(CO)N1CC[C@@H](Oc2nonc2/C(=N/O)N[C@H]2Cc3ccc(F)cc32)C1` [Example 60, N-[(7S)-4-fluorobicyclo[4.2.0]octa-1,3,5-trien-7-yl]-N′-hydroxy-4-{[(3R)-1-(hydroxyacetyl)pyrrolidin-3-yl]oxy}-1,2,5-oxadiazole-3-carboximidamide], the IC50 in assay [1] amounted to 1440 nM; on HIS-tagged IDO1 protein it was 1390 nM.

Regarding `NC(=O)N1CC(Oc2nonc2/C(=N/O)N[C@H]2Cc3ccc(F)cc32)C1` [Example 63, (S,Z)-3-((4-(N-(4-fluorobicyclo[4.2.0]octa-1(6),2,4-trien-7-yl)-N′-hydroxycarbamimidoyl)-1,2,5-oxadiazol-3-yl)oxy)azetidine-1-carboxamide], the results for the half-maximal inhibitory concentration (IC50) (in assay [1]; on HIS-tagged IDO1 protein) were 36 nM and 20 nM, respectively.

`NS(=O)(=O)N1CC[C@@H](Oc2nonc2/C(=N/O)N[C@H]2Cc3ccc(F)cc32)C1` [Example 31, N-[(7S)-4-fluorobicyclo[4.2.0]octa-1,3,5-trien-7-yl]-N′-hydroxy-4-{[(3R)-1-sulfamoylpyrrolidin-3-yl]oxy}-1,2,5-oxadiazole-3-carboximidamide]: the IC50 was 750 nM in assay [1] and 747 nM at HIS-tagged IDO1 protein.

As to `NS(=O)(=O)N1CC[C@H](Oc2nonc2/C(=N/O)N[C@H]2Cc3ccc(F)cc32)C1` [Example 32, N-[(7S)-4-fluorobicyclo[4.2.0]octa-1,3,5-trien-7-yl]-N′-hydroxy-4-{[(3S)-1-sulfamoylpyrrolidin-3-yl]oxy}-1,2,5-oxadiazole-3-carboximidamide], the IC50 came to 340 nM in assay [1] and 308 nM on HIS-tagged IDO1 protein.

On to `C[C@H](CO)NC(=O)COc1nonc1/C(=N/O)N[C@H]1Cc2ccc(F)cc21` [Example 8, 2-[(4-{N-[(7S)-4-fluorobicyclo[4.2.0]octa-1,3,5-trien-7-yl]-N′-hydroxycarbamimidoyl}-1,2,5-oxadiazol-3-yl)oxy]-N-[(2R)-1-hydroxypropan-2-yl]acetamide], for which the values for the IC50 (in assay [1]; at HIS-tagged IDO1 protein) were 416 nM and 110 nM, respectively.
